Source: patent US20130172408A1, “Medicaments Based on Dinuclear Arene Ruthenium Complexes Comprising Bridging Thiolato, Selenolato or Alkoxo Ligands” (Universite de Neuchatel, priority 2010, published 2013)
Values joined by “and” are separate entries in the source; they are usually repeats but may differ in a detail not shown here. Identical values can stand only once. Like-named read-outs stand apart in the source and are kept apart here.

Tests used:
[1] = tested on: A2780 human ovarian cancer cells; experiment: MTT assay, inhibition of cell growth, A2780; type: cell-based
Method: (§1) Human A2780 and A2780cisR ovarian carcinoma cells were obtained from the European Centre of Cell Cultures (ECACC, Salisbury, UK) and maintained in culture as described by the provider. The cells were routinely grown in RPMI 1640 medium with GlutaMAX™ containing 5% foetal calf serum (FCS) and antibiotics (penicillin and streptomycin) at 37° C. and 5% CO2.
(§2) The antiproliferative activity of complexes 9-20 was evaluated against the human ovarian A2780 cancer cell line and its cisplatin-resistant derivative A2780cisR using the MTT assay, which measures mitochondrial dehydrogenase activity as an indication of cell viability. For the evaluation of growth inhibition tests, the cells were seeded in 96-well plates (25×10^3 cells per well) and grown for 24 h in complete medium. Complexes were dissolved in DMSO and added to the required concentration to the cell culture for 72 h incubation. Solutions of the compounds were applied by diluting a freshly prepared stock solution of the corresponding compound in aqueous RPMI medium with GlutaMAX™ (20 mM). Following drug exposure, 3-(4,5-dimethylthiazol-2-yl)-2,5-diphenyltetrazolium bromide (MTT) was added to the cells at a final concentration of 0.25 mg/mL and incubated for 2 h, then the culture medium was aspirated and the violet formazan (artificial chromogenic precipitate of the reduction of tetrazolium salts by dehydrogenases and reductases) dissolved in DMSO. The optical density of each well (96-well plates) was quantified three times in triplicates at 540 nm using a multiwall plate reader (iEMS Reader MF, Labsystems, US), and the percentage of surviving cells was calculated from the ratio of absorbance of treated to untreated cells. The IC50 values for the inhibition of cell growth were determined by fitting the plot of the logarithmic percentage of surviving cells against the logarithm of drug concentration using a linear regression function. The median value and the median absolute deviation were obtained from the Excel™ software (Microsoft™) and those values are reported in Table 2.
(§3) The toxicity of further compounds in accordance with the invention shown in FIGS. 9A and 9B and of the prior art compounds PA1 and PA2 was assessed as described in Example 6.

[2] = tested on: A2780cisR human ovarian cancer cells (cisplatin-resistant); experiment: MTT assay, inhibition of cell growth, A2780cisR; type: cell-based
Method: as §1, §2, §3

[3] = tested on: PLC/PRF/5 human liver cancer cells; conditions: MTT assay, from JP 7089855; cited from earlier work
Solubility (qualitative) = type: physicochemical; conditions: water and organic solvents
Text: The spectroscopic data for the analogues [18]Cl, [19]Cl and [20]Cl is in excellent agreement with that reported previously Mashima et al., Schacht et al. Chérioux et al., cited above).

[4] = Catalytic oxidation of glutathione to glutathione disulfide in aqueous solution
[5] = Catalytic oxidation of cysteine to cystine in aqueous solution
[6] = Stability by 1H NMR spectroscopy; type: physicochemical; conditions: 12 hours at 37° C. in DMSO-d6, in D2O/DMSO-d6 (95:5), and in DMSO-d6 with two drops of RPMI 1640 medium containing 5% foetal calf serum
[7] = as described in Example 6 (Table 3), read-out: Average IC50 A2780
[8] = as described in Example 6 (Table 3), read-out: Average IC50 A2780cisR
[9] = 72 h incubation, MTT, median value (Table 2), read-out: IC50 A2780
[10] = 72 h incubation, MTT, median value (Table 2), read-out: IC50 A2780cisR

Row | Compound | IC50 [1, 7] [nM] | IC50 [2, 8] [nM] | IC50 [1, 9] [nM] | IC50 [2, 10] [nM] | also measured
1 | CC1=C(C)C(C)C(C)=C1C.CC1=C(C)C(C)C(C)=C1C.Sc1ccccc1.Sc1ccccc1.Sc1ccccc1.[Ru+3].[Ru+3] [PA1, [(CsMes)2Ru2(p-SC6H5)3]^+, reference compound] | 3050 | 2190 | – | – | –
2 | Cc1c(C)c(C)[c-](C)c1C.Cc1c(C)c(C)[c-](C)c1C.[Ru+3].[Ru+3].[S-]c1ccccc1.[S-]c1ccccc1.[S-]c1ccccc1 [PA1, [(CsMes)2Ru2(p-SC6H5)3]^+, reference compound] | – | – | – | – | IC50 [3]: 131 µg/mL
3 | CC1=C(C)C(C)C(C)=C1C.CC1=C(C)C(C)C(C)=C1C.Cc1ccc(S)cc1.Cc1ccc(S)cc1.Cc1ccc(S)cc1.[Ru+3].[Ru+3] [PA2, [(CsMe5)2Ru2(p-SC6H4Me)3]^+, reference compound] | 1930 | 1550 | – | – | –
4 | CCCCCCCOc1ccc(C(=O)OCCCCc2ccccc2)cc1.CCCCCCCOc1ccc(C(=O)OCCCCc2ccccc2)cc1.[Cl-].[Ru+2].[Ru+2].[S-]c1ccccc1.[S-]c1ccccc1.[S-]c1ccccc1 [[10]Cl, [(C6H6—(CH2)4—O—C(O)—C6H4-p-O—(CH2)6CH3)2Ru2(SPh)3]^+] | – | – | 4900 | 5600 | –
5 | COc1ccc(C=CC(=O)OCCc2ccccc2)cc1.COc1ccc(C=CC(=O)OCCc2ccccc2)cc1.[Cl-].[Ru+2].[Ru+2].[S-]c1ccccc1.[S-]c1ccccc1.[S-]c1ccccc1 [[11]Cl, [trans-(C6H6—(CH2)2—O—C(O)—CH═CH—C6H4-p-O—CH3)2Ru2(SPh)3]^+] | 815 | 1360 | 820 | 1360 | –
6 | COc1ccc(C=CC(=O)OCCCCc2ccccc2)cc1.COc1ccc(C=CC(=O)OCCCCc2ccccc2)cc1.[Cl-].[Ru+2].[Ru+2].[S-]c1ccccc1.[S-]c1ccccc1.[S-]c1ccccc1 [[12]Cl, [trans-(C6H6—(CH2)4—O—C(O)—CH═CH—C6H4-p-O—CH3)2Ru2(SPh)3]^+] | 420 | 545 | 490 | 560 | –
7 | Cc1ccc(C(C)C)cc1.Cc1ccc(C(C)C)cc1.[Cl-].[Ru+2].[Ru+2].[S-]c1ccccc1.[S-]c1ccccc1.[S-]c1ccccc1 [[18]C1, [(p-^iPrC6H4Me)2Ru2(SPh)3]^+] | – | – | 240 | 250 | –
8 | Cc1c(C)c(C)c(C)c(C)c1C.Cc1c(C)c(C)c(C)c(C)c1C.[Cl-].[Ru+2].[Ru+2].[S-]c1ccccc1.[S-]c1ccccc1.[S-]c1ccccc1 [[19]Cl, [(C6Me6)2Ru2(SPh)3]^+] | 433 | 1200 | 400 | 1200 | –
9 | [(C6H6)2Ru2(SPh)3]^+ [[17]C1] | – | – | 380 | 480 | IC50 ([1]; as described in Example 6 (Table 3), listed as 17, read-out: Average IC50 A2780): 240 nM and 377 nM; Solubility (Solubility (qualitative)): soluble in water and in organic solvents; IC50 ([2]; as described in Example 6 (Table 3), listed as 17, read-out: Average IC50 A2780cisR): 253 nM and 477 nM
10 | [(C6H6—(CH2)2—O—C(O)—C6H4-p-O—(CH2)6CH3)2Ru2(SPh)3]^+ [[9]Cl] | – | – | 2200 | 2700 | –
11 | [(p-^iPrC6H4Me)2Ru2(S-p-C6H4Me)3]^+ [[20]C1] | 130 | 77 | 130 | 80 | Catalysis of the reaction of Glutathione (GSH) to form glutathione disulfide (GSSG) [4]: very high efficiency; Catalysis of the reaction of Cysteine (Cys) to form Cystine [5]: very high efficiency; Stability (1H NMR signals) [6]: stable under these conditions
12 | [Ru2(p-C6Me6)2(p-SC6H4OH)3]^+ [Compound 22] | 500 | 500 | – | – | –
13 | [Ru2(p-MeC6H4Pr^i)2(p-SC6H4OH)3]^+ [Compound 21] | 533 | 1470 | – | – | –
